Source: US8231888B2, “Isoxazolines for controlling invertebrate pests” (priority 2005, dated 2012)

Legend:
Assay type in all cases: in vivo
[1] = tested on: diamondback moth (Plutella xylostella); assay: Test A: control of diamondback moth on radish plant, foliar spray; settings: 6 days, 25° C.
Excerpt: For evaluating control of diamondback moth (Plutella xylostella) the test unit consisted of a small open container with a 12-14-day-old radish plant inside. This was pre-infested with about 50 neonate larvae that were dispensed into the test unit via corn cob grits using a bazooka inoculator. The larvae moved onto the test plant after being dispensed into the test unit.
(§1) Test compounds were formulated using a solution containing 10% acetone, 90% water and 300 ppm X-77™ Spreader Lo-Foam Formula non-ionic surfactant containing alkylarylpolyoxyethylene, free fatty acids, glycols and isopropanol (Loveland Industries, Inc. Greeley, Colo., USA). The formulated compounds were applied in 1 mL of liquid through a SUJ2 atomizer nozzle with 1/8 JJ custom body (Spraying Systems Co. Wheaton, Ill., USA) positioned 1.27 cm (0.5 inches) above the top of each test unit. All experimental compounds in these tests were sprayed at 250 and/or 50 ppm, and the test was replicated three times. After spraying of the formulated test compound, each test unit was allowed to dry for 1 h and then a black, screened cap was placed on top. The test units were held for 6 days in a growth chamber at 25° C. and 70% relative humidity. Plant feeding damage was then visually assessed based on foliage consumed and a pest mortality rating was also counted and calculated for each test unit.

[2] = tested on: fall armyworm (Spodoptera frugiperda); assay: Test B: control of fall armyworm on corn (maize) plant, foliar spray
Experimental: as §1
For evaluating control of fall armyworm (Spodoptera frugiperda) the test unit consisted of a small open container with a 4-5-day-old corn (maize) plant inside. This was pre-infested (using a core sampler) with 10-15 1-day-old larvae on a piece of insect diet. Test compounds were formulated and sprayed at 250 and/or 50 ppm as described for Test A and replicated three times. After spraying, the test units were maintained in a growth chamber and then the control efficacy was rated for each test unit as described for Test A.

[3] = tested on: western flower thrips (Frankliniella occidentalis); assay: Test D: control of western flower thrips on Soleil bean plant, contact and/or systemic; settings: 6 days, 25° C.
Experimental: as §1
For evaluating control of the western flower thrips (Frankliniella occidentalis) through contact and/or systemic means, the test unit consisted of a small open container with a 5-7 day old Soleil Bean plant inside. Test compounds were formulated and sprayed at 250 and/or 50 ppm, and the test was replicated three times as described for Test A. After spraying, the test units were allowed to dry for 1 hour and then 22-27 adult thrips were added to each unit and then a black, screened cap was placed on top. The test units were held for 6 days at 25° C. and 45-55% relative humidity. A mortality rating was assessed along with a plant damage rating for each test unit.

[4] = sprayed at 250 and/or 50 ppm, no asterisk (not limited to 250 ppm)
[5] = asterisk: observed only at 250 ppm

| SMILES | control efficacy (20% or less feeding damage or 80% or more mortality) [1, 4] | control efficacy (20% or less feeding damage or 80% or more mortality) [2, 4] | further results |
| --- | --- | --- | --- |
| COC(=O)[C@@H](NC(=O)c1ccc(C2=NOC(c3cc(Cl)cc(Cl)c3)(C(F)(F)F)C2)c2ccccc12)C(C)C (some centres unmarked) [Compound 49] | very good to excellent levels of control efficacy | very good to excellent levels of control efficacy | control efficacy (20% or less feeding damage or 80% or more mortality) [3, 4]: very good to excellent levels of control efficacy |
| CC(NC(=O)c1ccc(C2=NOC(c3cc(Cl)cc(Cl)c3)(C(F)(F)F)C2)c2ccccc12)c1ccc([N+](=O)[O-])cc1 (mixture of isomers) [Compound 28] | very good to excellent levels of control efficacy | very good to excellent levels of control efficacy | – |
| FC(F)(F)CNC(=S)c1ccc(C2=NOC(c3cc(Cl)cc(Cl)c3)(C(F)(F)F)C2)c2ncccc12 (centres unmarked) [Compound 109] | – | – | control efficacy (20% or less feeding damage or 80% or more mortality) [1, 5]: very good to excellent levels of control efficacy |
| CC(NC(=O)c1ccc(C2=NOC(c3cc(Cl)cc(Cl)c3)(C(F)(F)F)C2)c2ccccc12)c1ccc(F)cc1 (mixture of isomers) [Compound 31] | very good to excellent levels of control efficacy | very good to excellent levels of control efficacy | – |
| O=C(NCc1ccccn1)c1ccc(C2=NOC(c3ccc(Cl)c(Cl)c3)(C(F)(F)F)C2)c2ccccc12 (centres unmarked) [Compound 23] | very good to excellent levels of control efficacy | very good to excellent levels of control efficacy | – |
| CC(=O)NNC(=O)c1ccc(C2=NOC(c3cc(Cl)cc(Cl)c3)(C(F)(F)F)C2)c2ccccc12 (centres unmarked) [Compound 45] | very good to excellent levels of control efficacy | – | control efficacy (20% or less feeding damage or 80% or more mortality) [3, 5]: very good to excellent levels of control efficacy |
| O=C(NCc1ccccn1)c1ccc(C2=NOC(c3cc(Cl)cc(Cl)c3)(C(F)(F)F)C2)c2ncccc12 (centres unmarked) [Compound 106] | very good to excellent levels of control efficacy | – | control efficacy (20% or less feeding damage or 80% or more mortality) [2, 5]: very good to excellent levels of control efficacy |
| CNC(=O)c1ccc(C2=NOC(c3cc(Cl)cc(Cl)c3)(C(F)(F)F)C2)c2ccccc12 (centres unmarked) [Compound 12] | very good to excellent levels of control efficacy | very good to excellent levels of control efficacy | – |
| O=C(NCc1ccccn1)c1ccc(C2=NOC(c3cc(Cl)cc(Cl)c3)(C(F)(F)F)C2)c2cnccc12 (centres unmarked) [Compound 105] | very good to excellent levels of control efficacy | – | – |
| CC(NC(=O)c1ccc(C2=NOC(c3cc(Cl)cc(Cl)c3)(C(F)(F)F)C2)c2ccccc12)c1ccc2ccccc2c1 (mixture of isomers) [Compound 27] | very good to excellent levels of control efficacy | – | – |
| O=C(N[C@H]1CCCc2ccccc21)c1ccc(C2=NOC(c3cc(Cl)cc(Cl)c3)(C(F)(F)F)C2)c2ccccc12 (some centres unmarked) [Compound 38] | very good to excellent levels of control efficacy | – | – |
| NCCCCCCNC(=O)c1ccc(C2=NOC(c3cc(Cl)cc(Cl)c3)(C(F)(F)F)C2)c2ccccc12 (centres unmarked) [Compound 50] | very good to excellent levels of control efficacy | – | – |
| O=C(NCc1ccccn1)c1ccc(C2=NOC(c3cc(Cl)cc(Cl)c3)(C(F)(F)F)C2)c2cccnc12 (centres unmarked) [Compound 103, 5-[5-(3,5-dichlorophenyl)-4,5-dihydro-5-(trifluoromethyl)-3-isoxazolyl]-N-(2-pyridinylmethyl)-8-quinolinecarboxamide] | very good to excellent levels of control efficacy | very good to excellent levels of control efficacy | – |
| O=C(NCC(F)(F)F)c1ccc(C2=NOC(c3ccnc(Cl)c3)(C(F)(F)F)C2)c2ccccc12 (centres unmarked) [Compound 201] | very good to excellent levels of control efficacy | very good to excellent levels of control efficacy | – |
| COC(=O)C(NC(=O)c1ccc(C2=NOC(c3cc(Cl)cc(Cl)c3)(C(F)(F)F)C2)c2ccccc12)c1ccccc1 (mixture of isomers) [Compound 29] | very good to excellent levels of control efficacy | very good to excellent levels of control efficacy | – |
| O=C(NCc1cccnc1)c1ccc(C2=NOC(c3cc(Cl)cc(Cl)c3)(C(F)(F)F)C2)c2ccccc12 (centres unmarked) [Compound 6] | very good to excellent levels of control efficacy | very good to excellent levels of control efficacy | – |
| O=C(NCc1ccccn1)c1ccc(C2=NOC(c3ccnc(Cl)c3)(C(F)(F)F)C2)c2ccccc12 (centres unmarked) [Compound 202] | very good to excellent levels of control efficacy | very good to excellent levels of control efficacy | – |
| O=C(NCc1ccncc1)c1ccc(C2=NOC(c3cc(Cl)cc(Cl)c3)(C(F)(F)F)C2)c2ccccc12 (centres unmarked) [Compound 7] | very good to excellent levels of control efficacy | very good to excellent levels of control efficacy | – |
| CCN(C)C(=O)c1ccc(C2=NOC(c3cc(Cl)cc(Cl)c3)(C(F)(F)F)C2)c2ccccc12 (centres unmarked) [Compound 9] | very good to excellent levels of control efficacy | very good to excellent levels of control efficacy | – |
| O=C(NCc1ccccn1)c1ccc(C2=NOC(c3cccc(Cl)c3)(C(F)(F)F)C2)c2ccccc12 (centres unmarked) [Compound 25] | – | very good to excellent levels of control efficacy | – |
| COC(=O)[C@H](C)NC(=O)c1ccc(C2=NOC(c3cc(Cl)cc(Cl)c3)(C(F)(F)F)C2)c2ccccc12 (some centres unmarked) [Compound 48] | very good to excellent levels of control efficacy | – | control efficacy (20% or less feeding damage or 80% or more mortality) [3, 5]: very good to excellent levels of control efficacy |
| CC(NC(=O)c1ccc(C2=NOC(c3cc(Cl)cc(Cl)c3)(C(F)(F)F)C2)c2ccccc12)c1ccc(Cl)cc1 (mixture of isomers) [Compound 30] | very good to excellent levels of control efficacy | very good to excellent levels of control efficacy | – |
| Cc1cc(C)cc(C2(C(F)(F)F)CC(c3ccc(C(=O)NCc4ccccn4)c4ccccc34)=NO2)c1 (centres unmarked) [Compound 22] | very good to excellent levels of control efficacy | very good to excellent levels of control efficacy | – |
| FC(F)(F)C1(c2cc(Cl)cc(Cl)c2)CC(c2ccc(C(=S)NCc3ccccn3)c3cccnc23)=NO1 (centres unmarked) [Compound 108] | – | – | control efficacy (20% or less feeding damage or 80% or more mortality) [1, 5]: very good to excellent levels of control efficacy |
| O=C(O)CNC(=O)c1ccc(C2=NOC(c3cc(Cl)cc(Cl)c3)(C(F)(F)F)C2)c2ccccc12 (centres unmarked) [Compound 43] | very good to excellent levels of control efficacy | – | – |
| O=C(NCC(F)(F)F)c1ccc(C2=NOC(c3cc(Cl)cc(Cl)c3)(C(F)(F)F)C2)c2ncccc12 (centres unmarked) [Compound 107] | – | – | control efficacy (20% or less feeding damage or 80% or more mortality) [1, 5]: very good to excellent levels of control efficacy; control efficacy (20% or less feeding damage or 80% or more mortality) [2, 5]: very good to excellent levels of control efficacy |
| CCC(C)NC(=O)c1ccc(C2=NOC(c3cc(Cl)cc(Cl)c3)(C(F)(F)F)C2)c2ccccc12 (centres unmarked) [Compound 33] | – | – | control efficacy (20% or less feeding damage or 80% or more mortality) [3, 5]: very good to excellent levels of control efficacy |
| NCCNC(=O)c1ccc(C2=NOC(c3cc(Cl)cc(Cl)c3)(C(F)(F)F)C2)c2ccccc12 (centres unmarked) [Compound 47] | very good to excellent levels of control efficacy | – | control efficacy (20% or less feeding damage or 80% or more mortality) [3, 5]: very good to excellent levels of control efficacy |
| NC(=O)c1ccc(C2=NOC(c3cc(Cl)cc(Cl)c3)(C(F)(F)F)C2)c2ccccc12 (centres unmarked) [Compound 36] | very good to excellent levels of control efficacy | very good to excellent levels of control efficacy | – |
